Earlier results as cited in Sander's compilation of Henry's law constants (doi:10.1021/cr60306a003).

Experiment: Henry solubility constant Hcp at 298.15 K (mol/(m3 Pa))
Details: reference: Wilhelm et al. (1977); cited value

Row | Henry solubility constant Hcp | SMILES
1 | 0.00013 | C=CCC [1-butene]
2 | 0.00075 | C#CCC [1-butyne]
3 | 8e-06 | CC(C)C [2-methylpropane]
4 | 0.00037 | C#CC=C [3-buten-1-yne]
5 | 1.4e-05 | [Ar] [argon]
6 | 1.2e-05 | CCCC [butane]
7 | 0.00033 | O=C=O [carbon dioxide]
8 | 3.4e-06 | FC(F)(F)C(F)(F)Cl [chloropentafluoroethane]
9 | 9.3e-06 | FC(F)(F)Cl [chlorotrifluoromethane]
10 | 0.00011 | C1CC1 [cyclopropane]
11 | 5.9e-06 | CC(C)(C)C [dimethylpropane]
12 | 0.00024 | [N-]=[N+]=O [dinitrogen monoxide]
13 | 4.7e-05 | C=C [ethene]
14 | 0.00041 | C#C [ethyne]
15 | 3.8e-06 | [He] [helium]
16 | 7.7e-06 | [HH] [hydrogen]
17 | 2.5e-05 | [Kr] [krypton]
18 | 4.4e-06 | [Ne] [neon]
19 | 1.3e-05 | O=O [oxygen]
20 | 7.3e-05 | C=CC [propene]
21 | 9.2e-05 | [Rn] [radon]
22 | 2.4e-06 | FS(F)(F)(F)(F)F [sulfur hexafluoride]
23 | 4.2e-05 | [Xe] [xenon]

Second part, the molecule before the results:

Row | SMILES | Henry solubility constant Hcp
24 | C=CC=C [1,3-butadiene] | 0.00014
25 | C=C(C)C [2-methylpropene] | 5.6e-05
26 | CBr [bromomethane] | 0.0016
27 | [C-]#[O+] [carbon monoxide] | 9.4e-06
28 | O=C=S [carbon oxide sulfide] | 0.00021
29 | [O][Cl+][O-] [chlorine dioxide] | 0.01
30 | FC(F)Cl [chlorodifluoromethane] | 0.00034
31 | C=CCl [chloroethene] | 0.00045
32 | FCCl [chlorofluoromethane] | 0.0015
33 | FC(F)(Cl)Cl [dichlorodifluoromethane] | 2.1e-05
34 | CNC [dimethylamine] | 0.3
35 | FN(F)N(F)F [dinitrogen tetrafluoride] | 8.4e-06
36 | CCN [ethanamine] | 0.35
37 | CF [fluoromethane] | 0.00058
38 | FC(F)=C(F)C(F)(F)F [hexafluoropropene] | 2.9e-06
39 | CN [methanamine] | 0.35
40 | FN(F)F [nitrogen trifluoride] | 7.9e-06
41 | O=[O+][O-] [ozone] | 0.00013
42 | P [phosphorus trihydride] | 8.1e-05
43 | O=S=O [sulfur dioxide] | 0.014
44 | FC(F)=C(F)F [tetrafluoroethene] | 1.6e-05
45 | FC(F)(F)F [tetrafluoromethane] | 2.1e-06
46 | FC(F)F [trifluoromethane] | 0.00013
